{"source": "patent US6403627B1", "about": "“Spin trapping pharmaceutical compositions and methods for use thereof” (Oklahoma Medical Research Foundation, priority 1991, dated 2002)", "key": {"[1]": {"test": "Toxicity tests (LD50)", "format": "in vivo", "method": "Exemplary dosages of the parent phenyl t-butyl nitrone administered intravenously range from 0.1 to 10 mg/kg of body weight in animals. […] It is possible to extrapolate from comparative tests using other spin trapping compounds what the effective dosage for these compounds will be."}, "[2]": {"test_system": "free radicals produced by adriamycin in heart, brain and other organs", "conditions": "brain and other organs of research animals; cited from earlier work"}, "[3]": {"test_system": "protein oxidation and enzyme activity in aged cells/brain", "conditions": "as early as seven days following initiation of daily treatment; cited from earlier work"}, "[4]": {"test_system": "protein oxidation and enzyme activity in aged cells/brain", "test": "Age-related protein oxidation and enzyme activity after daily administration", "format": "in vivo", "conditions": "aging; daily administration for fourteen days", "source_text": "The consequence of this increased level of protein oxidation is an abnormally low level of critical enzymes in the affected cells. While not all cells have been evaluated, it appears from the in vivo data presented in U.S. Ser. No. 07/589,177abandoned on Mar. 5, 1993, and U.S. Ser. No. 07/422,651, now U.S. Pat. No. 5,025,032, and reports of in vitro studies, that most, if not all, cells in the body will undergo abnormally high levels of protein oxidation. Decreases in antioxidant systems and abnormally low levels of mitochondrial function have been described. The protein oxidation is thought to arise from oxygen free radicals, largely generated via a metal catalyzed reaction within the cell. […] Organs for transplantation are obtained from donors. The success of the procedure is determined in part by the age (oxidation) related reduction in organ viability, the amount of time the organ is in preservation solution, and the status of the recipient."}, "[5]": {"test_system": "oxidation of low density lipoprotein in plasma", "test": "Oxidation of lipid in plasma/LDL samples measured as thiobarbituric acid reactive substance (TBAR)", "format": "biochemical", "conditions": "for % inhibition / Test (TBAR): 0.1 mM PBN, 4° C. for seven weeks; for % inhibition: actual inhibition greater than measured (assay interference by PBN)", "method": "Diabetic atherosclerosis involves the abnormal and excessive glycation of protein in the vascular wall. As discussed above for diabetic neuropathy, this involves oxygen radical production and consequent further damage to cytosolic proteins. Spin-trapping compounds will prevent this abnormal processing of cellular protein and other cellular constituents. […] Plasma samples were tested for oxidation of lipid measured using thiobarbioturic acid reactive substance (TBAR, nM) and % inhibition of oxidation calculated."}}, "data": [{"smiles": "CC(C)(C)[N+]([O-])=Cc1ccccc1", "note": "[PBN, phenyl N-tert-butylnitrone]", "values": [{"measurement": "LD50", "setting": "[1]", "result": "not possible to determine an LD50"}, {"measurement": "toxicity", "setting": "[1]", "result": "completely innocuous"}, {"measurement": "trapping of free radicals produced by adriamycin", "setting": "[2]", "result": "trap the free radicals produced by adriamycin"}, {"measurement": "enzymatic status of the aged brain", "setting": "[3]", "result": "restoring enzymatic levels to near those of the young adult"}, {"measurement": "abnormally low level of enzyme activity", "setting": "[4]", "result": "restored to normal"}, {"measurement": "level of protein oxidation", "setting": "[4]", "result": "decreased"}, {"measurement": "% inhibition", "setting": "[5]; NP132 plasma", "result": 18.2, "unit": "%"}, {"measurement": "Test (TBAR)", "setting": "[5]; NP132 plasma, control + PBS 0.55", "result": 0.45, "unit": "nM/ml"}, {"measurement": "% inhibition", "setting": "[5]; NP133 LDL", "result": 48.1, "unit": "%"}, {"measurement": "Test (TBAR)", "setting": "[5]; NP133 LDL, control + PBS 0.54", "result": 0.28, "unit": "nM/ml"}, {"measurement": "% inhibition", "setting": "[5]; NP134 plasma", "result": 22.2, "unit": "%"}, {"measurement": "Test (TBAR)", "setting": "[5]; NP134 plasma, control + PBS 0.18", "result": 0.14, "unit": "nM/ml"}, {"measurement": "% inhibition", "setting": "[5]; NP135 LDL", "result": 66.7, "unit": "%"}, {"measurement": "Test (TBAR)", "setting": "[5]; NP135 LDL, control + PBS 0.33", "result": 0.11, "unit": "nM/ml"}, {"measurement": "% inhibition", "setting": "[5]; NP135 plasma", "result": 21.9, "unit": "%"}, {"measurement": "Test (TBAR)", "setting": "[5]; NP135 plasma, control + PBS 0.32", "result": 0.25, "unit": "nM/ml"}, {"measurement": "oxidation of low density lipoprotein in plasma", "setting": "[5]; in vitro studies", "result": "inhibits or reduces oxidation of low density lipoprotein in plasma"}]}]}
